How the values were obtained:
[1] = system: A2058 human melanoma xenografts; assay: Efficacy and body weight in A2058 xenografts (Example 39); format: in vivo; conditions: for Tumor Size on PG-D24 / Tumor Size on PG-D28 / Tumor Volume Trace over Time: Mean ± SEM; for Antitumor activity compared with vehicle group: one-way ANOVA, Dunnett
Experimental: Compound 1, encorafenib and dabrafenib were administered to BALB/c nude mice bearing A2058 xenografts orally for 28 days. Compound 1 was dosed twice per day (BID) and dosed at 10 mg/kg from day 0. Encorafenib and dabrafenib were dosed daily (QD) from day 1. Encorafenib was dosed at 35 mg/kg. Dabrafenib was dosed at 100 mg/kg.
Each mouse was inoculated subcutaneously at the right flank with A2058 cells (5×106) in 0.2 mL of PBS supplemented with Matrigel (PBS:Matrigel=1:1) for tumor development. Animals were grouped for efficacy study when the average tumor volume reached 130 mm^3 on day 7 after tumor inoculation and 412 mm^3 for PKPD study on day 14.
At the time of routine monitoring, the animals were checked daily for any effects of tumor growth and treatments on normal behavior such as mobility, food and water consumption (by looking only), body weight gain/loss (body weights were measured twice weekly), eye/hair matting and any other abnormal effect as stated in the protocol. Death and observed clinical signs were recorded on the basis of the numbers of animals within each subset.
Prior to the onset of drug treatment, mice were measured for tumor size in two dimensions using a caliper, and the tumor volume (mm^3) was calculated using formula V=0.5 a×b^2 where a and b are the long and short diameters of the tumor in mm, respectively. Mice were randomized into different treatment groups based on the tumor volume.
The major endpoint was to see if the tumor growth could be delayed or mice could be cured. The tumor size was then used for calculations of T/C value. The T/C value (in percent) is an indication of antitumor effectiveness; T and C are the mean volumes of the treated and control groups, respectively on specified day.
Tumor growth inhibition (TGI) was calculated for each group using the formula: TGI (%) 20=[1−(Ti−T0)/(Ci−C0)]×100; Ti is the average tumor volume of a treatment group on a given day, TO is the average tumor volume of the treatment group on the day of treatment start, Ci is the average tumor volume of the vehicle control group on the same day with Ti, and C0 is the average tumor volume of the vehicle group on the day of treatment start.
A one-way ANOVA followed by Dunnett's multiple comparison test was performed to compare tumor volume among vehicle group and treatment groups. All data were analyzed using GraphPad Prism, * indicates p<0.01, **** indicates p<0.0001 and ns indicates p>0.05.

[2] = system: patient-derived xenograft (PDX) of non-small cell lung carcinoma (NSCLC) with BRAF V600E mutation; assay: Efficacy in BRAF V600E NSCLC PDX model; conditions: for Tumor response: day 28
[3] = system: BRAF V600E mutant A375-luciferase intracranial model; assay: Efficacy in A375-luciferase intracranial model; conditions: for Survival rate: as of day 75
Experimental: For the efficacy study, agents were tested in A375 human melanoma cancer cell derived xenografts (CDX). […] The A375 tumor cells were maintained in vitro in DMEM medium supplemented with 10% fetal bovine serum and 1% Penicillin-Streptomycin at 37° C. in an atmosphere of 5% CO2 in air. The tumor cells were routinely subcultured twice weekly. The cells growing in an exponential growth phase were harvested and counted for tumor inoculation.
For this CNS study, A375 cells with a luciferase tag for tracking tumor cell signal, were injected intracranially into 6-8 week old female BALB/c nude mice. […] The mice were anaesthetized, restrained, and sterilized prior to surgery. […] A 2 mm hole was created to the right of the anterior fontanel and 0.5 mm above the coronal on the skull with a cranial drill. Cell suspensions in 20% Matrigel were mixed and aspirated into the injector carefully to avoid bubbles and wiped to avoid extracranial tumorigenesis. The needle was inserted vertically into the cranial hole and the cell mixture was slowly injected for two minutes and held for another minute to decrease the drainage of the cell suspension. The wound was closed, and a subcutaneous injection of 5 mg/kg Meloxicam was given to relieve the pain and continued for three days. The mice were monitored closely until they woke up after the surgery. After inoculation, the animals were checked daily for morbidity and mortality.
The administration of the test agents began three days after inoculation. […] Measurements for the presence of the A375 luciferase signal within the CNS were done with IVIS Lumina III machine. Images were collected twice weekly to follow the growth of the models. The tumor-bearing mice were weighed and intraperitoneally administered luciferin (Perkin Elmer Inc-122799) at a dosage of 150 mg/kg. After ten minutes, mice were pre-anesthetized with the mixture gas of oxygen and isoflurane. The bioluminescence value at fifteen minutes post luciferin injection was recorded as the final value and plotted. The endpoint for individual mice was reached when the mouse body weight decreased by 20% when compared to their starting weight.
The luciferase signal for the mice removed from study were not carried forward, so a sudden drop in luciferase signal over time is due to mice with a heavy tumor burden being terminated and their high luciferase signal not being carried forward.

[4] = PG-D24, Compound 1 10 mg/kg BID, encorafenib 35 mg/kg QD, dabrafenib 100 mg/kg QD
[5] = PG-D24, Compound 1 10 mg/kg p.o. BID, Encorafenib 35 mg/kg p.o. QD, Dabrafenib 100 mg/kg p.o. QD
[6] = PG-D24, treated / control average tumor volume, Compound 1 10 mg/kg p.o. BID, Encorafenib 35 mg/kg p.o. QD, Dabrafenib 100 mg/kg p.o. QD
[7] = PG-D28, Compound 1 10 mg/kg p.o. BID, Encorafenib 35 mg/kg p.o. QD, Dabrafenib 100 mg/kg p.o. QD
[8] = PG-D28, treated / control average tumor volume, Compound 1 10 mg/kg p.o. BID, Encorafenib 35 mg/kg p.o. QD, Dabrafenib 100 mg/kg p.o. QD
[9] = day 0 (baseline), Compound 1 10 mg/kg p.o. BID × 28 days, Encorafenib 35 mg/kg p.o. QD × 28 days, Dabrafenib 100 mg/kg p.o. QD × 28 days
[10] = day 3, Compound 1 10 mg/kg p.o. BID, Encorafenib 35 mg/kg p.o. QD, Dabrafenib 100 mg/kg p.o. QD
[11] = day 7, Compound 1 10 mg/kg p.o. BID, Encorafenib 35 mg/kg p.o. QD, Dabrafenib 100 mg/kg p.o. QD
[12] = day 10, Compound 1 10 mg/kg p.o. BID, Encorafenib 35 mg/kg p.o. QD, Dabrafenib 100 mg/kg p.o. QD
[13] = day 14, Compound 1 10 mg/kg p.o. BID, Encorafenib 35 mg/kg p.o. QD, Dabrafenib 100 mg/kg p.o. QD
[14] = day 17, Compound 1 10 mg/kg p.o. BID, Encorafenib 35 mg/kg p.o. QD, Dabrafenib 100 mg/kg p.o. QD
[15] = day 21, Compound 1 10 mg/kg p.o. BID, Encorafenib 35 mg/kg p.o. QD, Dabrafenib 100 mg/kg p.o. QD
[16] = day 24, Compound 1 10 mg/kg p.o. BID, Encorafenib 35 mg/kg p.o. QD, Dabrafenib 100 mg/kg p.o. QD
[17] = day 28, Compound 1 10 mg/kg p.o. BID, Encorafenib 35 mg/kg p.o. QD, Dabrafenib 100 mg/kg p.o. QD

Row | Compound | T/C [1, 4] [%] | TGI [1, 4] [%] | TV (mean tumor volume) [1, 4] [mm^3] | TGI [1, 5] [%] | Tumor Size on PG-D24 [1, 5] [mm^3] | Antitumor activity compared with vehicle group ([1]; PG-D24) | T/C [1, 6] [%] | TGI [1, 7] [%] | Tumor Size on PG-D28 [1, 7] [mm^3] | T/C [1, 8] [%] | Tumor Volume Trace over Time [1, 9] [mm^3] | Tumor Volume Trace over Time [1, 10] [mm^3] | Tumor Volume Trace over Time [1, 11] [mm^3] | Tumor Volume Trace over Time [1, 12] [mm^3] | Tumor Volume Trace over Time [1, 13] [mm^3] | Tumor Volume Trace over Time [1, 14] [mm^3] | Tumor Volume Trace over Time [1, 15] [mm^3] | Tumor Volume Trace over Time [1, 16] [mm^3] | Tumor Volume Trace over Time [1, 17] [mm^3] | also measured
1 | CC(C)(C)c1nc(-c2cccc(NS(=O)(=O)c3c(F)cccc3F)c2F)c(-c2ccnc(N)n2)s1 [dabrafenib] | 77.37 | 23.87 | 1948 | 23.87 | 1948 ± 150 | no significant antitumor activity | 77.37 | 23.96 | 2227 ± 140 | 77.13 | 130 ± 4 | 203 ± 6 | 361 ± 28 | 572 ± 29 | 921 ± 74 | 1232 ± 105 | 1558 ± 132 | 1948 ± 150 | 2227 ± 140 | Body weight loss (individual mice) ([1]; 100 mg/kg, Group 4, PG-D21 (one mouse also PG-D28)): over 10%; Status by day 28 ([2]; dabrafenib 100 mg/kg PO QD plus trametinib 0.1 mg/kg PO QD): reached tumor burden endpoint; Status by day 28 ([2]; single agent, trametinib 0.1 mg/kg PO QD, dabrafenib 100 mg/kg PO QD): reached tumor burden endpoint
2 | CCN(C)S(=O)(=O)Nc1ccc(F)c(Oc2ccc3ncn([C@H]4COC5(CCN(C(=O)CC6(O)CCN(c7cc8c(cc7F)c(N7CCC(=O)NC7=O)nn8C)CC6)CC5)C4)c(=O)c3c2)c1C#N [Compound 1, (3R)-3-[6-[2-cyano-3-[[ethyl(methyl)sulfamoyl]amino]-6-fluorophenoxy]-4-oxoquinazolin-3-yl]-8-[2-[1-[3-(2,4-dioxo-1,3-diazinan-1-yl)-5-fluoro-1-methylindazol-6-yl]-4-hydroxypiperidin-4-yl]acetyl]-1-oxa-8-azaspiro[4.5]decane] | 37.06 | 66.37 | 933 | 66.37 | 933 ± 119 | significant antitumor activity | 37.06 | 63.41 | 1139 ± 153 | 39.45 | 130 ± 4 | 167 ± 8 | 205 ± 12 | 267 ± 16 | 414 ± 38 | 562 ± 53 | 711 ± 79 | 933 ± 119 | 1139 ± 153 | Survival rate ([3]; 10 mg/kg PO BID): 50%; Survival rate ([3]; 30 mg/kg PO BID): 87.5%; Survival time compared to encorafenib ([3]; intracranial melanoma tumors): significant increase in survival time; Bioluminescence signal (tumor burden) ([3]; relative to vehicle control or encorafenib treated mice): dramatically reduced the bioluminescence signal; Tumor response ([2]; 10 mg/kg PO BID plus trametinib 0.1 mg/kg PO QD): tumor regression; Tumor response ([2]; 10 mg/kg PO BID, without trametinib): tumor regression

Reference: US20250289827A1, “MORPHIC FORMS OF A MUTANT BRAF DEGRADER AND METHODS OF MANUFACTURE THEREOF” (C4 THERAPEUTICS, INC., priority 2022, published 2025)
